The results in this text go back to patent publication EP0003461A1, “Aminoalcohol derivatives of ortho-hydroxy-methyl cinnamate, process for their preparation and medicines containing them” (LIPHA, LYONNAISE INDUSTRIELLE PHARMACEUTIQUE, priority 1978, dated 1979).

The subject of one data set is récepteurs bêta-1. Kind of data set: Inhibition of isoprenaline-induced tachycardia in the anaesthetised, bivagotomised dog. The format is in vivo, chien. The conditions noted are these: dog anaesthetised with pentobarbital, isoprénaline 0,4 µg/kg/I.V., beta-1 blockade. As to the method: […]'action sur […] tension artérielle et du rythme cardiaque du […]é au pentobarbital et bivagotomisé recevant des injections […] (0,4 μg/kg/I.V.). L'hypotension provoquée par l'isoprénaline est due à une stimulation des récepteurs bêta-2 qui […] une vasodilatation. La […] produite par l'isopré- naline est due à une stimulation des récepteursbêta-1 cardiaques oui […] une accélération de son rythme de contraction. Dans l'inhibition […] visualisant un effet de blocage des récepteurs bêta-1, on a déterminé la dose efficace 50 en mg/kg/I.V.

The next data set concerns récepteurs bêta-2. The experiment in a line: Inhibition of isoprenaline-induced hypotension in the anaesthetised, bivagotomised dog. It is filed as in vivo, chien. The conditions noted are these: dog anaesthetised with pentobarbital, isoprénaline 0,4 µg/kg/I.V., beta-2 blockade. An excerpt:
L'hypotension provoquée par l'isoprénaline est due à une stimulation des récepteurs bêta-2 qui entraîne une vasodilatation. La tachycardie produite par l'isopré- naline est due à une stimulation des récepteursbêta-1 cardiaques oui entraîne une accélération de son rythme de contraction.

The nature of data set [1]: Clinical trial observations in patients given 200 mg tablets. It is filed as in vivo. How it is done: Parmi les observations recueillies en essai clinique, avec administration de comprimés titrés à 200 mg de principe actif, le chlorhydrate de l'ortho [(diméthoxy-3,4 phénéthylamino) -3 hydroxy-2 propoxy] trans cinnamate de méthyle, on peut rapporter les trois suivantes : • Observation N°1: • Monsieur NOV...., 64 ans présente un état de mal angineux chroniaue avec huit crises par 24 heures. Le traitement consiste en un repos et la prise d'un comprimé à 200 mg du composé exemple 1 24 heures pendant 10 jours. Le résultat est un effet bradycardisant net; le pouls passe de 95 à 60 et une très nette diminution des crises dès le deuxième jour (2 à 3 par 24 heures) est notée. La tolérance est très bonne. • Obseryation N°2: • Monsieur CLI...., 75 ans présente un bloc auriculo- ventriculaire complet appareillé par pace-maker cardis à un rythme fixe (68/mn) avec parpsystolie. A l'suscultation on note un souffle systolique en écharpe. L'électrocardiogramme montre une paracystolie avec complexes spontanés à F.R. long et aspect de bloc gauche et co-plexe électro- entrainés. La radiographie montre une hypertrophie ventriculaire gauche modérée. Le traitement consiste en la prise journalière pendant 10 jours du composé exemple 1 à 200 mg.
Monsieur HEL ...., 44 ans a une hypertension artérielle depuis 3 ans; les chiffres habituels récents sont 180/110 mn Mg. L'étiologie est inconnue et il n'y a pas de complications. On associe au traitement consistant en la prise le matin d' 1 comprimé à 200 mg, pendant 15 jours, un régime hyposodé.

As for `CC(=O)Nc1ccc(OCC(O)CNC(C)C)cc1` (stereo not drawn) [Fractolol, 4' - [2-hydroxy-3 - (iso-propylamino)propoxy] acétanilide], the “dose efficace 50 (DE 50), inhibition de la tachycardie à l'isoprénaline” value with récepteurs bêta-1 is recorded as 0,61 mg/kg/I.V.
As for `COC(=O)/C=C/c1ccccc1OCC(O)CNC(C)C` (stereo not drawn) [LM 748, chlorhydrate de l'ortho (isopropylamino 3 - hydroxy-2 propoxy) trans cinnamate de méthyle], the “dose efficace 50 (DE 50), inhibition de l'hypotension à l'isoprénaline” value in the data set with récepteurs bêta-2 is on record as 0,01 mg/kg/I.V.
`COC(=O)/C=C/c1ccccc1OCC(O)CNCCc1ccc(OC)c(OC)c1` (racemic) [Composé exemple 1, trans ortho [(3-4 diméthoxyphénéthyl)amino-3 hydroxy-2 propoxy] cinnamatede méthyle]: the tolérance entry in data set [1] (Observation N°1: 200 mg per 24 h for 10 days) is “très bonne”; in data set [1] (Observation N°2: 200 mg daily for 10 days), “très bonne”; in data set [1] (Observation N°3: general and local tolerance, 200 mg per day for 15 days) it was “bonne”. Moreover, the “crises par 24 heures” value in data set [1] (Observation N°1: angina attacks from the second day, one 200 mg tablet per 24 h, before treatment eight per 24 h) was 2 à 3 par 24 heures. This compound also displayed a pouls in data set [1] (Observation N°1: patient, chronic angina, one 200 mg tablet per 24 h for 10 days, before treatment 95) of 60. The résultat entry in data set [1] (Observation N°2: patient, complete AV block with pacemaker and parasystole, 200 mg daily for 10 days) is “disparition de la para- systolie”; in data set [1] (Observation N°3: patient, arterial hypertension, one 200 mg tablet in the morning for 15 days, with low-sodium diet) it was “très bon”. Besides, in data set [1] (Observation N°3: after treatment, 200 mg per day for 15 days, before 70), the “Pouls, Après” value is listed as 60. The “Tension artérielle debout, Après” value in data set [1] (Observation N°3: after treatment, 200 mg per day for 15 days, before 160/100) is listed as 140/88. Besides, the “Tension artérielle couché, Après” value in data set [1] (Observation N°3: after treatment, 200 mg per day for 15 days, before 165/102) is on record as 140/90.
